The record followed here is US10954221B2, “GLP-1R agonists and uses thereof” (QILU REGOR THERAPEUTICS INC., priority 2019, dated 2021).

In assay [1] the target is T1, GLP1R (Homo sapiens, UniProt P43220). In words: GLP1R cAMP assay (HTRF), HEK293/GLP-1R/CRE/Luc, Clone 4. Background: Cyclic AMP is a second messenger, typically raised through Gs and lowered through Gi signalling.
Target sequence in this assay (P43220 24-463): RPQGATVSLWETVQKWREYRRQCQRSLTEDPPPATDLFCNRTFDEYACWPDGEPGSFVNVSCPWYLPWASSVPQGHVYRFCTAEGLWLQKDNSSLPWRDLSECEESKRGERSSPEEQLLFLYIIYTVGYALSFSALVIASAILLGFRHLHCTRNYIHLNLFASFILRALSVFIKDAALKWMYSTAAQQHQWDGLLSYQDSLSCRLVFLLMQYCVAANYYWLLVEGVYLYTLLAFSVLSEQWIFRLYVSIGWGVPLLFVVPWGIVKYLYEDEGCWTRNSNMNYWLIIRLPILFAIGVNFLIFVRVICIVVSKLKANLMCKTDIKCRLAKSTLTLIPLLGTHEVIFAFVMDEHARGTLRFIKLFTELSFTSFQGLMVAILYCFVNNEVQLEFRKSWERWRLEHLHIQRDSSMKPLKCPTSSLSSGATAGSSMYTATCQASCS
Experimental: The human GLP-1R coding sequence (NCBI Reference Sequence NM_002062) was subcloned into pcDNA3.1+/Hygro vector (Invitrogen) and transfected into HEK293/CRE/Luc parental cell line. A cell line stably expressing the receptor was isolated.
Varying concentrations of each compound to be tested (in DMSO) were diluted in DMSO to obtain 200× compound working solution first and then 50 nl compounds were added to a white 384-well assay plate (Greiner 784075) with ECHO. The final DMSO concentration was 0.5%.
Cells were removed from cryopreservation, re-suspended in 5 mL of Dulbecco's Phosphate Buffered Saline (DPBS-Sigma Cat #D8537) and centrifuged at 900×g for 5 min at 22° C. The cell pellet was then re-suspended in 1 mL of assay buffer [DPBS with 500 μM IBMX (Sigma #15879) and 0.1% BSA (Sigma #A1933). IBMX and BSA were freshly added on the day of assay]. A 10 μL sample of the cell suspension was counted on an Invitrogen Countess II to determine cell viability and cell count per mL. The remaining cell suspension was then adjusted with assay buffer to deliver 1000 viable cells per well using a Matrix Combi Multidrop reagent dispenser. 10 μL cell suspensions were added to each well
of the assay plate which already contains compound. The plate was sealed and incubated at 37° C. with 5% CO2 for 30 minutes.
Following the 30 minute incubation, 5 μL of labeled d2 cAMP and 5 μL of anti-cAMP antibody (both diluted 1:20 in cell lysis buffer; as described in the manufacturer's assay protocol) were added to each well of the assay plate. The plates were then incubated at room temperature and after 60 minutes, changes in the HTRF signal were read with an Envision multi-label plate reader using excitation of 330 nm and emissions of 615 and 665 nm. Raw data were converted to nM cAMP by interpolation from a cAMP standard curve (as described in the manufacturer's assay protocol) and the percent effect was determined relative to a saturating concentration of the full agonist GLP-17-37 (10 nM) included on each plate. EC50 determinations were made from agonist dose-response curves analyzed with a curve fitting program using a 4-parameter logistic dose response equation.
Assay [2] concerns the target T1, GLP1R. In words: cAMP assay in CHO cells stably expressing hGLP-1R. It is filed as cell-based. Also noted: expressed in transfected cells; host or cells: CHO cells stably transfected. The note with it: CHO cells stably expressing hGLP-1R (Table 2), read-out: CHO cAMP stable EC50. As to the method: GLP-1R-mediated agonist activity was determined with a cell-based functional assay utilizing an HTRF (Homogeneous Time-Resolved Fluorescence) cAMP detection kit (cAMP Dynamic 2 Assay Kit; CisBio cat #62AM4PEC) that measures cAMP levels in the cell. The method is a competitive immunoassay between native cAMP produced by the cells and exogenous cAMP labeled with the dye d2. The tracer binding is visualized by a mAb anti-cAMP labeled with Cryptate. The specific signal (i.e., energy transfer) is inversely proportional to the concentration of cAMP in either standard or experimental sample.
Following the 30 minute incubation, 5 μL of labeled d2 cAMP and 5 μL of anti-cAMP antibody (both diluted 1:20 in cell lysis buffer; as described in the manufacturer's assay protocol) were added to each well of the assay plate. […] Raw data were converted to nM cAMP by interpolation from a cAMP standard curve (as described in the manufacturer's assay protocol) and the percent effect was determined relative to a saturating concentration of the full agonist GLP-17-37 (10 nM) included on each plate. EC50 determinations were made from agonist dose-response curves analyzed with a curve fitting program using a 4-parameter logistic dose response equation. […]
Target sequence in this assay (P43220 24-463): as above

The target of assay [3] is T1, GLP1R. In words: β-Arrestin-mediated GLP1R internalization assay (PathHunter U2OS cells). Conditions: averaged Bmax where applicable, Percentage of Control GLP-1 (7-37), top 10 μM, 180 min. It is filed as cell-based. Details: host or cells: PathHunter engineered U2OS cells. From the text:
A similar assay can also be used to assess the extent of signal attenuation due to GLP-1R internalization (the Internalization Assay). In this assay, activated GLP1R Internalization cells were engineered to co-express an untagged GLP1R, Enzyme Acceptor (EA) tagged β-Arrestin, and a ProLink™ (PK) tag localized to the endosomes. Activation of the GLP1R induces β-Arrestin recruitment, which leads to internalization of the Receptor/Arrestin-EA complex in PK-tagged endosomes. This forces complementation of the two β-galactosidase enzyme fragments (EA and PK) to form a functional enzyme that hydrolyzes substrate to generate a chemiluminescent signal.
Frozen cells were quickly thawed and 10 mL of cell plating medium (provided by the kit) was added to thawed cells. Cells were stored in a 37° C. incubator and kept for approximately 48 hours until ready for the assay.
Reference and test compounds were dissolved in 100% DMSO. […] 5 μL of this solution was added to 20 μL cell medium in assay plate for a final top concentration of 10 μM. Plates were incubated at 37° C. for 180 min.
Following 180 min incubation, detection reagents were made up by combining 1 part Galacton Star Substrate with 5 parts Emerald II™ Solution, and 19 parts of PathHunter Cell Assay Buffer, respectively. 12.5 μL detection reagent was added to each well. The plates were then incubated at room temperature for 60 min. Plates were then read on Envision for 0.1 sec/well.
EC50 determinations were made from agonist dose-response curves analyzed with a curve fitting program using a 4-parameter logistic dose response equation.
Target sequence in this assay (P43220 24-463): as above
Target sequence in this assay (P32121 whole entry partner): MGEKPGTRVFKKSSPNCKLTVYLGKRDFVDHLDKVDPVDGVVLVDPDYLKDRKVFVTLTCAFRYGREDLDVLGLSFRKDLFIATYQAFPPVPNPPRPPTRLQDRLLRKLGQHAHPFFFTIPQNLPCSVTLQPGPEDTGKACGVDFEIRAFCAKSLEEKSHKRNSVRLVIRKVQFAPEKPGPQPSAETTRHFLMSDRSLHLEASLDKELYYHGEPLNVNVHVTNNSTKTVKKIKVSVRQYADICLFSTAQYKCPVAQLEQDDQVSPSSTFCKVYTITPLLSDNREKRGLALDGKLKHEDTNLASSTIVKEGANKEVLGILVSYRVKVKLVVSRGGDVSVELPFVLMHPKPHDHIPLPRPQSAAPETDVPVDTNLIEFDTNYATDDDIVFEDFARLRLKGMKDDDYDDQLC

The target of assay [4] is T1, GLP1R. Details: Emax: dose or concentration left out as unconfirmed. Conditions: CHO-K1, […], read-out: β-arrestin recruitment Bmax (%).
Target sequence in this assay (P43220 24-463): as the sequence (P43220 24-463) above
Target sequence in this assay (P32121 whole entry partner): as the sequence (P32121 whole entry partner) above

Molecules are shown by their SMILES.

For orientation: EC50 means the concentration that produces a half-maximal response. Take `O=C(O)c1ccc2nc(Cc3cc(F)c(-c4ncc(F)c(OCc5ncc(Cl)cc5F)n4)cc3F)n(C[C@@H]3CCO3)c2c1` [Compound 272, (S)-2-(4-(4-((5-chloro-3-fluoropyridin-2-yl)methoxy)-5-fluoropyrimidin-2-yl)-2,5-difluorobenzyl)-1-(oxetan-2-ylmethyl)-1H-benzo[d]imidazole-6-carboxylic acid]: the results for the 50% effective concentration (EC50) on GLP1R [1] and at GLP1R [2] were under 15 nM and 15 to 150 nM, respectively.
The matching figures for `N#Cc1ccc(COc2cccc(-c3cc(F)c(Cc4nc5ccc(C(=O)O)nc5n4C[C@@H]4CCO4)cc3F)n2)nc1` [Compound 279, (S)-2-(4-(6-((5-cyanopyridin-2-yl)methoxy)pyridin-2-yl)-2,5-difluorobenzyl)-3-(oxetan-2-ylmethyl)-3H-imidazo[4,5-b]pyridine-5-carboxylic acid]: under 15 nM and under 15 nM.
The like results for `N#Cc1ccc(COc2nc(-c3cc(F)c(Cc4nc5ccc(C(=O)O)nc5n4C[C@@H]4CCO4)cc3F)ncc2F)nc1` [Compound 280, (S)-2-(4-(4-((5-cyanopyridin-2-yl)methoxy)-5-fluoropyrimidin-2-yl)-2,5-difluorobenzyl)-3-(oxetan-2-ylmethyl)-3H-imidazo[4,5-b]pyridine-5-carboxylic acid] were, in that order, under 15 nM and 15 to 150 nM.
Regarding `O=C(O)c1ccc2nc(Cc3ccc(-c4cccc(OCc5ccc(Cl)cc5F)n4)cc3F)n(C[C@@H]3CCO3)c2n1` [Compound 287, (S)-2-(4-(6-((4-chloro-2-fluorobenzyl)oxy)pyridin-2-yl)-2-fluorobenzyl)-3-(oxetan-2-ylmethyl)-3H-imidazo[4,5-b]pyridine-5-carboxylic acid], the EC50 on GLP1R [2] lay within 15 to 150 nM.
For the compound `N#Cc1ccc(COc2cccc(-c3ccc(Cc4nc5ccc(C(=O)O)nc5n4C[C@@H]4CCO4)c(F)c3)n2)nc1` [Compound 288, (S)-2-(4-(6-((5-cyanopyridin-2-yl)methoxy)pyridin-2-yl)-2-fluorobenzyl)-3-(oxetan-2-ylmethyl)-3H-imidazo[4,5-b]pyridine-5-carboxylic acid], the concentration giving a half-maximal response (EC50) at GLP1R [1] is under 15 nM; at GLP1R [2] it was 15 to 150 nM.
The matching figures for `O=C(O)c1ccc2nc(Cc3ccc(-c4ncc(F)c(OCc5ncc(Cl)cc5F)n4)cc3F)n(C[C@@H]3CCO3)c2n1` [Compound 294, (S)-2-(4-(4-((5-chloro-3-fluoropyridin-2-yl)methoxy)-5-fluoropyrimidin-2-yl)-2-fluorobenzyl)-3-(oxetan-2-ylmethyl)-3H-imidazo[4,5-b]pyridine-5-carboxylic acid]: under 15 nM and 15 to 150 nM.
As for `O=C(O)c1ccc2nc(Cc3cc(F)c(-c4cccc(OCc5ccc(Cl)cn5)n4)cc3F)n(C[C@@H]3CCO3)c2n1` [Compound 296, (S)-2-(4-(6-((5-chloropyridin-2-yl)methoxy)pyridin-2-yl)-2,5-difluorobenzyl)-3-(oxetan-2-ylmethyl)-3H-imidazo[4,5-b]pyridine-5-carboxylic acid], the concentration giving a half-maximal response (EC50) on GLP1R [1] and at GLP1R [2] was under 15 nM each time.
For `N#Cc1ccc(COc2cccc(-c3ccc(Cc4nc5ccc(C(=O)O)c(F)c5n4C[C@@H]4CCO4)cc3F)n2)c(F)c1` [Compound 307, (S)-2-(4-(6-((4-cyano-2-fluorobenzyl)oxy)pyridin-2-yl)-3-fluorobenzyl)-7-fluoro-1-(oxetan-2-ylmethyl)-1H-benzo[d]imidazole-6-carboxylic acid], the “β-arrestin internalization Bmax (POC)” value on GLP1R [3] worked out at 33.8 ± 2.73 POC. The same compound showed an EC50 at GLP1R [1] of under 15 nM. Also, the Emax on GLP1R [4] came out at 46.8 ± 7.21%.
For `O=C(O)c1ccc2nc(Cc3ccc(-c4cccc(OCc5ccc(Cl)cc5F)n4)c(F)c3)n(C[C@@H]3CCO3)c2c1F` [Compound 308, (S)-2-(4-(6-((4-chloro-2-fluorobenzyl)oxy)pyridin-2-yl)-3-fluorobenzyl)-7-fluoro-1-(oxetan-2-ylmethyl)-1H-benzo[d]imidazole-6-carboxylic acid], the “β-arrestin internalization Bmax (POC)” value at GLP1R [3] was found to be 48.8 ± 6.11 POC. Also, the EC50 at GLP1R [1] was under 15 nM. The Emax at GLP1R [4] was 62.8 ± 4.09%.
